Patent US12077503B2, “Substituted cyclic amides and their use as herbicides” (FMC CORPORATION, priority 2015, dated 2024)

Columns and labels:
Format in all cases: in vivo
Kochia (Kochia scoparia) [1] = assay: Test A preemergence; settings: Bassia scoparia, pre-emergence, 240 h, preemergence, 0 to 100 scale where 0 is no effect and 100 is complete control, read-out: Kochia plant response rating; for pest or weed control at 125 g/ha: 125 g ai/ha, approx. 10 d; for pest or weed control at 500 g/ha: 500 g ai/ha
Procedure, shortened: (§1)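 Preemergence directed soil spray on seeded pots, or postemergence application to plants 2–10 cm, one- to two-leaf. Solvent mixture non-phytotoxic, with surfactant. Scored ~10 d later, visually, 0–100 vs untreated.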

[2] = test system: ryegrass, Italian (Italian ryegrass, Lolium multiflorum); assay: Test A preemergence; settings: Lolium multiflorum, pre-emergence, 240 h, preemergence, 0 to 100 scale where 0 is no effect and 100 is complete control, read-out: Ryegrass, Italian plant response rating; for pest or weed control at 125 g/ha: 125 g ai/ha, approx. 10 d; for pest or weed control at 500 g/ha: 500 g ai/ha
Procedure, shortened: as §1

[3] = test system: pigweed (Amaranthus retroflexus); assay: Test A preemergence; settings: Amaranthus retroflexus, pre-emergence, 240 h, preemergence, 0 to 100 scale where 0 is no effect and 100 is complete control, read-out: Pigweed plant response rating; for pest or weed control at 125 g/ha: 125 g ai/ha, approx. 10 d; for pest or weed control at 500 g/ha: 500 g ai/ha
[4] = test system: ragweed (common ragweed, Ambrosia elatior); assay: Test A preemergence; settings: Ambrosia artemisiifolia, pre-emergence, 240 h, preemergence, 0 to 100 scale where 0 is no effect and 100 is complete control, read-out: Ragweed plant response rating; for pest or weed control at 125 g/ha: 125 g ai/ha, approx. 10 d; for pest or weed control at 500 g/ha: 500 g ai/ha
Procedure, shortened: as §1

[5] = test system: giant foxtail (Setaria faberii); assay: Test A preemergence; settings: Setaria faberi, pre-emergence, 240 h, preemergence, 0 to 100 scale where 0 is no effect and 100 is complete control, read-out: Foxtail, Giant plant response rating; for pest or weed control at 125 g/ha: 125 g ai/ha, approx. 10 d; for pest or weed control at 500 g/ha: 500 g ai/ha
Procedure, shortened: as §1

[6] = test system: barnyardgrass (Echinochloa crus-galli); assay: Test A preemergence; settings: Echinochloa crus-galli, pre-emergence, 240 h, preemergence, 0 to 100 scale where 0 is no effect and 100 is complete control, read-out: Barnyardgrass plant response rating; for pest or weed control at 125 g/ha: 125 g ai/ha, approx. 10 d; for pest or weed control at 500 g/ha: 500 g ai/ha
Procedure, shortened: as §1

Kochia (Kochia scoparia) [7] = assay: Test A postemergence; settings: Bassia scoparia, post-emergence, 240 h, postemergence, read-out: Kochia plant response rating; for pest or weed control at 125 g/ha: 125 g ai/ha, visual injury on 0 to 100 scale (0 no effect, 100 complete control), approx. 10 d; for pest or weed control at 500 g/ha: 500 g ai/ha, 0 to 100 scale, 0 is no effect, 100 is complete control
Procedure, shortened: as §1

[8] = test system: blackgrass (Alopecurus myosuroides); assay: Test A postemergence; settings: Alopecurus myosuroides, post-emergence, 240 h, postemergence, read-out: Blackgrass plant response rating; for pest or weed control at 125 g/ha: 125 g ai/ha, visual injury on 0 to 100 scale (0 no effect, 100 complete control), approx. 10 d; for pest or weed control at 500 g/ha: 500 g ai/ha, 0 to 100 scale, 0 is no effect, 100 is complete control
Procedure, shortened: as §1

[9] = test system: ryegrass, Italian (Italian ryegrass, Lolium multiflorum); assay: Test A postemergence; settings: Lolium multiflorum, post-emergence, 240 h, postemergence, read-out: Ryegrass, Italian plant response rating; for pest or weed control at 125 g/ha: 125 g ai/ha, visual injury on 0 to 100 scale (0 no effect, 100 complete control), approx. 10 d; for pest or weed control at 500 g/ha: 500 g ai/ha, 0 to 100 scale, 0 is no effect, 100 is complete control
Procedure, shortened: as §1

[10] = test system: wheat (Triticum aestivum); assay: Test A postemergence; settings: Triticum aestivum, post-emergence, 240 h, postemergence, read-out: Wheat plant response rating; for plant injury at 125 g/ha: 125 g ai/ha, visual injury on 0 to 100 scale (0 no effect, 100 complete control), approx. 10 d; for plant injury at 500 g/ha: 500 g ai/ha, 0 to 100 scale, 0 is no effect, 100 is complete control
Procedure, shortened: as §1

[11] = test system: pigweed (Amaranthus retroflexus); assay: Test A postemergence; settings: Amaranthus retroflexus, post-emergence, 240 h, postemergence, read-out: Pigweed plant response rating; for pest or weed control at 125 g/ha: 125 g ai/ha, visual injury on 0 to 100 scale (0 no effect, 100 complete control), approx. 10 d; for pest or weed control at 500 g/ha: 500 g ai/ha, 0 to 100 scale, 0 is no effect, 100 is complete control
Procedure, shortened: as §1

[12] = test system: Galium (catchweed bedstraw, Galium aparine); assay: Test A postemergence; settings: Galium, post-emergence, 240 h, postemergence, read-out: Galium plant response rating; for pest or weed control at 125 g/ha: 125 g ai/ha, visual injury on 0 to 100 scale (0 no effect, 100 complete control), approx. 10 d; for pest or weed control at 500 g/ha: 500 g ai/ha, 0 to 100 scale, 0 is no effect, 100 is complete control
Procedure, shortened: as §1

[13] = test system: ragweed (common ragweed, Ambrosia elatior); assay: Test A postemergence; settings: Ambrosia artemisiifolia, post-emergence, 240 h, postemergence, read-out: Ragweed plant response rating; for pest or weed control at 125 g/ha: 125 g ai/ha, visual injury on 0 to 100 scale (0 no effect, 100 complete control), approx. 10 d; for pest or weed control at 500 g/ha: 500 g ai/ha, 0 to 100 scale, 0 is no effect, 100 is complete control
Procedure, shortened: as §1

corn (Zea mays) = assay: Test A postemergence; settings: Zea mays, post-emergence, 240 h, postemergence, read-out: Corn plant response rating; for plant injury at 125 g/ha: 125 g ai/ha, visual injury on 0 to 100 scale (0 no effect, 100 complete control), approx. 10 d; for plant injury at 500 g/ha: 500 g ai/ha, 0 to 100 scale, 0 is no effect, 100 is complete control
Procedure, shortened: as §1

[14] = test system: barnyardgrass (Echinochloa crus-galli); assay: Test A postemergence; settings: Echinochloa crus-galli, post-emergence, 240 h, postemergence, read-out: Barnyardgrass plant response rating; for pest or weed control at 125 g/ha: 125 g ai/ha, visual injury on 0 to 100 scale (0 no effect, 100 complete control), approx. 10 d; for pest or weed control at 500 g/ha: 500 g ai/ha, 0 to 100 scale, 0 is no effect, 100 is complete control
Procedure, shortened: as §1

Row | SMILES | pest or weed control at 125 g/ha (Kochia (Kochia scoparia) [1]) | pest or weed control at 500 g/ha (Kochia (Kochia scoparia) [1]) | pest or weed control at 125 g/ha [2] | pest or weed control at 500 g/ha [2] | pest or weed control at 125 g/ha [3] | pest or weed control at 500 g/ha [3] | pest or weed control at 125 g/ha [4] | pest or weed control at 125 g/ha [5] | pest or weed control at 500 g/ha [5] | pest or weed control at 125 g/ha [6] | pest or weed control at 500 g/ha [6] | pest or weed control at 125 g/ha (Kochia (Kochia scoparia) [7]) | pest or weed control at 500 g/ha (Kochia (Kochia scoparia) [7]) | pest or weed control at 125 g/ha [8] | pest or weed control at 500 g/ha [8] | pest or weed control at 125 g/ha [9] | pest or weed control at 500 g/ha [9] | plant injury at 125 g/ha [10] | plant injury at 500 g/ha [10] | pest or weed control at 125 g/ha [11] | further results
1 | Cc1c(F)cccc1NC(=O)[C@H]1C(=O)NC[C@@H]1c1cc(F)c(F)c(F)c1 [Compound 1125] | 50% | 80% | 0% | 60% | 0% | 40% | 0% | 90% | 100% | 90% | 90% | 0% | 40% | 40% | 50% | 0% | 60% | 30% | 40% | 0% | pest or weed control at 500 g/ha [11]: 0%; pest or weed control at 125 g/ha [12]: 40%; pest or weed control at 500 g/ha [12]: 50%; pest or weed control at 125 g/ha [13]: 0%; pest or weed control at 500 g/ha [13]: 0%; plant injury at 125 g/ha (corn (Zea mays)): 30%; plant injury at 500 g/ha (corn (Zea mays)): 60%; pest or weed control at 125 g/ha [14]: 90%; pest or weed control at 500 g/ha [14]: 90%
2 | CN1C[C@H](c2ccc3c(c2)OCO3)[C@@H](C(=O)Nc2cccc(F)c2F)C1=O [Compound 1126] | 70% | 80% | 0% | 70% | 30% | 60% | 60% | 90% | 90% | 90% | 90% | 50% | 70% | 20% | 40% | 30% | 50% | 50% | 70% | 0% | pest or weed control at 500 g/ha [4]: 50%; pest or weed control at 500 g/ha [11]: 30%; pest or weed control at 125 g/ha [12]: 50%; pest or weed control at 500 g/ha [12]: 40%; pest or weed control at 125 g/ha [13]: 40%; pest or weed control at 500 g/ha [13]: 40%; plant injury at 125 g/ha (corn (Zea mays)): 60%; plant injury at 500 g/ha (corn (Zea mays)): 90%; pest or weed control at 125 g/ha [14]: 90%; pest or weed control at 500 g/ha [14]: 90%
3 | O=C1NC[C@H](c2ccc3c(c2)OCO3)[C@H]1C(=O)Nc1cccc(F)c1C(F)(F)F [Compound 1127] | 0% | 0% | 0% | 0% | 0% | 0% | 0% | 0% | 70% | 0% | 30% | 0% | 0% | 0% | 20% | 0% | 0% | 0% | 0% | 0% | pest or weed control at 500 g/ha [4]: 0%; pest or weed control at 500 g/ha [11]: 0%; pest or weed control at 125 g/ha [12]: 0%; pest or weed control at 500 g/ha [12]: 40%; pest or weed control at 125 g/ha [13]: 0%; pest or weed control at 500 g/ha [13]: 0%; plant injury at 125 g/ha (corn (Zea mays)): 0%; plant injury at 500 g/ha (corn (Zea mays)): 0%; pest or weed control at 125 g/ha [14]: 0%; pest or weed control at 500 g/ha [14]: 40%
4 | O=C1NC[C@H](c2ccc(F)c(OC(F)(F)C(F)F)c2)[C@H]1C(=O)Nc1cccc(F)c1F [Compound 1131] | 100% | 90% | 0% | 70% | 80% | 90% | 60% | 90% | 90% | 90% | 90% | 60% | 70% | 40% | 60% | 0% | 50% | 50% | 70% | 50% | pest or weed control at 500 g/ha [4]: 80%; pest or weed control at 500 g/ha [11]: 80%; pest or weed control at 125 g/ha [12]: 60%; pest or weed control at 500 g/ha [12]: 60%; pest or weed control at 125 g/ha [13]: 50%; pest or weed control at 500 g/ha [13]: 80%; plant injury at 125 g/ha (corn (Zea mays)): 70%; plant injury at 500 g/ha (corn (Zea mays)): 80%; pest or weed control at 125 g/ha [14]: 70%; pest or weed control at 500 g/ha [14]: 90%
